Data published in patent publication US20110039721A1, “METHOD FOR PREDICTION ABOUT CARCINOGENICITY OF SUBSTANCE IN RODENT” (Chemicals Evaluation and Research Institute, priority 2007, published 2011).
Like-named read-outs stand apart in the source and are kept apart here.

Columns and labels:
[1] = system: mRNA expressed from the genes (A) to (D) in rat liver; assay: Behavior of genes (mRNA expression level, oligo-DNA microarray) in rat liver after 28-day oral administration; type: in vivo; conditions: for Behavior of gene caused by administration of chemical substance, Gene No. 4846 / Behavior of gene caused by administration of chemical substance, Gene No. 2026 / Behavior of gene caused by administration of chemical substance, Gene No. 4218 / Behavior of gene caused by administration of chemical substance, Gene No. 6182 / Behavior of gene caused by administration of chemical substance, Gene No. 5600: gene group (A); for Behavior of gene caused by administration of chemical substance, Gene No. 4846: Unigene No. Rn.144554; for Behavior of gene caused by administration of chemical substance, Gene No. 2026 / Behavior of gene caused by administration of chemical substance, Gene No. 4218: Unigene No. Rn.167075; for Behavior of gene caused by administration of chemical substance, Gene No. 6182: Unigene No. Rn.5834; for Behavior of gene caused by administration of chemical substance, Gene No. 5600: Unigene No. Rn.9836; for Behavior of gene caused by administration of chemical substance, Gene No. 1494 / Behavior of gene caused by administration of chemical substance, Gene No. 2045 / Behavior of gene caused by administration of chemical substance, Gene No. 2203: gene group (B); for Behavior of gene caused by administration of chemical substance, Gene No. 1494: Unigene No. Rn.1430; for Behavior of gene caused by administration of chemical substance, Gene No. 2045: Unigene No. Rn.19329; for Behavior of gene caused by administration of chemical substance, Gene No. 2203: Unigene No. Rn.21240; for Behavior of gene caused by administration of chemical substance, Gene No. 533 / Behavior of gene caused by administration of chemical substance, Gene No. 725 / Behavior of gene caused by administration of chemical substance, Gene No. 1163 / Behavior of gene caused by administration of chemical substance, Gene No. 4973 / Behavior of gene caused by administration of chemical substance, Gene No. 4095 / Behavior of gene caused by administration of chemical substance, Gene No. 1334 / Behavior of gene caused by administration of chemical substance, Gene No. 6620 / Behavior of gene caused by administration of chemical substance, Gene No. 6303 / Behavior of gene caused by administration of chemical substance, Gene No. 5878 / Behavior of gene caused by administration of chemical substance, Gene No. 1131 / Behavior of gene caused by administration of chemical substance, Gene No. 1562 / Behavior of gene caused by administration of chemical substance, Gene No. 1741 / Behavior of gene caused by administration of chemical substance, Gene No. 893 / Behavior of gene caused by administration of chemical substance, Gene No. 6026 / Behavior of gene caused by administration of chemical substance, Gene No. 154 / Behavior of gene caused by administration of chemical substance, Gene No. 1993 / Behavior of gene caused by administration of chemical substance, Gene No. 813 / Behavior of gene caused by administration of chemical substance, Gene No. 2494 / Behavior of gene caused by administration of chemical substance, Gene No. 2546 / Behavior of gene caused by administration of chemical substance, Gene No. 3776 / Behavior of gene caused by administration of chemical substance, Gene No. 3929 / Behavior of gene caused by administration of chemical substance, Gene No. 1119 / Behavior of gene caused by administration of chemical substance, Gene No. 6742 / Behavior of gene caused by administration of chemical substance, Gene No. 5634: gene group (C); for Behavior of gene caused by administration of chemical substance, Gene No. 533: Unigene No. Rn.106184; for Behavior of gene caused by administration of chemical substance, Gene No. 725: Unigene No. Rn.108075; for Behavior of gene caused by administration of chemical substance, Gene No. 1163: Unigene No. Rn.11766; for Behavior of gene caused by administration of chemical substance, Gene No. 4973: Unigene No. Rn.118529; for Behavior of gene caused by administration of chemical substance, Gene No. 4095: Unigene No. Rn.119024; for Behavior of gene caused by administration of chemical substance, Gene No. 1334 / Behavior of gene caused by administration of chemical substance, Gene No. 6620: Unigene No. Rn.120914; for Behavior of gene caused by administration of chemical substance, Gene No. 6303: Unigene No. Rn.123063; for Behavior of gene caused by administration of chemical substance, Gene No. 5878: Unigene No. Rn.143213; for Behavior of gene caused by administration of chemical substance, Gene No. 1131: Unigene No. Rn.144946; for Behavior of gene caused by administration of chemical substance, Gene No. 1562: Unigene No. Rn.14744; for Behavior of gene caused by administration of chemical substance, Gene No. 1741: Unigene No. Rn.1647; for Behavior of gene caused by administration of chemical substance, Gene No. 893: Unigene No. Rn.164817; for Behavior of gene caused by administration of chemical substance, Gene No. 6026: Unigene No. Rn.167685; for Behavior of gene caused by administration of chemical substance, Gene No. 154: Unigene No. Rn.185941; for Behavior of gene caused by administration of chemical substance, Gene No. 1993: Unigene No. Rn.18728; for Behavior of gene caused by administration of chemical substance, Gene No. 813: Unigene No. Rn.201760; for Behavior of gene caused by administration of chemical substance, Gene No. 2494: Unigene No. Rn.23969; for Behavior of gene caused by administration of chemical substance, Gene No. 2546: Unigene No. Rn.24561; for Behavior of gene caused by administration of chemical substance, Gene No. 3776: Unigene No. Rn.43232; for Behavior of gene caused by administration of chemical substance, Gene No. 3929: Unigene No. Rn.4620; for Behavior of gene caused by administration of chemical substance, Gene No. 1119: Unigene No. Rn.9757; for Behavior of gene caused by administration of chemical substance, Gene No. 6742: Unigene No. Rn.9779; for Behavior of gene caused by administration of chemical substance, Gene No. 5634: Unigene No. Rn.9862; for Behavior of gene caused by administration of chemical substance, Gene No. 5726: gene group (D), Unigene No. Rn.9939
How it was run: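 Male F344 SPF rats, 5 weeks old, four per group, received carcinogens, non-carcinogens or solvent vehicle by oral gavage once daily for 28 days. Liver total RNA was then extracted. Changes of ≥1.5-fold or ≤1/1.5 versus vehicle control, in a consistent direction across carcinogens, counted as significant.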

rodent = conditions: classification of the substance (C+/C−); cited from earlier work
liver = conditions: cited from earlier work
[2] = classification of the substance (M+/M−); cited from earlier work
[3] = classification of the substance (Cr+/Cr−)

Structure (SMILES) | Behavior of gene caused by administration of chemical substance, Gene No. 4846 [1] | Behavior of gene caused by administration of chemical substance, Gene No. 2026 [1] | Behavior of gene caused by administration of chemical substance, Gene No. 4218 [1] | Behavior of gene caused by administration of chemical substance, Gene No. 6182 [1] | Behavior of gene caused by administration of chemical substance, Gene No. 5600 [1] | Behavior of gene caused by administration of chemical substance, Gene No. 1494 [1] | Behavior of gene caused by administration of chemical substance, Gene No. 2045 [1] | Behavior of gene caused by administration of chemical substance, Gene No. 2203 [1] | Behavior of gene caused by administration of chemical substance, Gene No. 533 [1] | Behavior of gene caused by administration of chemical substance, Gene No. 725 [1] | Behavior of gene caused by administration of chemical substance, Gene No. 1163 [1] | Behavior of gene caused by administration of chemical substance, Gene No. 4973 [1] | Behavior of gene caused by administration of chemical substance, Gene No. 4095 [1] | Behavior of gene caused by administration of chemical substance, Gene No. 1334 [1] | Behavior of gene caused by administration of chemical substance, Gene No. 6620 [1] | Behavior of gene caused by administration of chemical substance, Gene No. 6303 [1] | Behavior of gene caused by administration of chemical substance, Gene No. 5878 [1] | Behavior of gene caused by administration of chemical substance, Gene No. 1131 [1] | Behavior of gene caused by administration of chemical substance, Gene No. 1562 [1] | Behavior of gene caused by administration of chemical substance, Gene No. 1741 [1] | other results
Nc1ccc([N+](=O)[O-])cc1N [TS035, 4-Nitro-o-phenylenediamine] | − | + | − | − | − | + | − | − | + | + | + | − | − | + | + | + | − | − | − | + | Behavior of gene caused by administration of chemical substance, Gene No. 893 [1]: −; Behavior of gene caused by administration of chemical substance, Gene No. 6026 [1]: −; Behavior of gene caused by administration of chemical substance, Gene No. 154 [1]: −; Behavior of gene caused by administration of chemical substance, Gene No. 1993 [1]: +; Behavior of gene caused by administration of chemical substance, Gene No. 813 [1]: +; Behavior of gene caused by administration of chemical substance, Gene No. 2494 [1]: −; Behavior of gene caused by administration of chemical substance, Gene No. 2546 [1]: +; Behavior of gene caused by administration of chemical substance, Gene No. 3776 [1]: −; Behavior of gene caused by administration of chemical substance, Gene No. 3929 [1]: −; Behavior of gene caused by administration of chemical substance, Gene No. 1119 [1]: −; Behavior of gene caused by administration of chemical substance, Gene No. 6742 [1]: −; Behavior of gene caused by administration of chemical substance, Gene No. 5634 [1]: +; Behavior of gene caused by administration of chemical substance, Gene No. 5726 [1]: −; Carcinogenicity (rodent): C−; Liver carcinogenicity (liver; in vivo): Cr−; Mutagenicity by Ames test [2]: M+
O=c1c(O)c(-c2ccc(O)c(O)c2)oc2cc(O)cc(O)c12 [TS037, Quercetin] | − | − | − | − | − | − | − | − | − | − | − | − | − | − | − | − | − | − | − | − | Behavior of gene caused by administration of chemical substance, Gene No. 893 [1]: −; Behavior of gene caused by administration of chemical substance, Gene No. 6026 [1]: −; Behavior of gene caused by administration of chemical substance, Gene No. 154 [1]: −; Behavior of gene caused by administration of chemical substance, Gene No. 1993 [1]: −; Behavior of gene caused by administration of chemical substance, Gene No. 813 [1]: −; Behavior of gene caused by administration of chemical substance, Gene No. 2494 [1]: −; Behavior of gene caused by administration of chemical substance, Gene No. 2546 [1]: −; Behavior of gene caused by administration of chemical substance, Gene No. 3776 [1]: −; Behavior of gene caused by administration of chemical substance, Gene No. 3929 [1]: −; Behavior of gene caused by administration of chemical substance, Gene No. 1119 [1]: −; Behavior of gene caused by administration of chemical substance, Gene No. 6742 [1]: −; Behavior of gene caused by administration of chemical substance, Gene No. 5634 [1]: −; Behavior of gene caused by administration of chemical substance, Gene No. 5726 [1]: −; Carcinogenicity (rodent): C−; Liver carcinogenicity (liver; [3]): Cr−; Mutagenicity by Ames test [2]: M+
IC(I)I [TS039, Iodoform] | − | − | − | − | − | + | − | − | − | − | − | − | − | + | + | + | − | − | − | + | Behavior of gene caused by administration of chemical substance, Gene No. 893 [1]: +; Behavior of gene caused by administration of chemical substance, Gene No. 6026 [1]: −; Behavior of gene caused by administration of chemical substance, Gene No. 154 [1]: +; Behavior of gene caused by administration of chemical substance, Gene No. 1993 [1]: −; Behavior of gene caused by administration of chemical substance, Gene No. 813 [1]: −; Behavior of gene caused by administration of chemical substance, Gene No. 2494 [1]: −; Behavior of gene caused by administration of chemical substance, Gene No. 2546 [1]: −; Behavior of gene caused by administration of chemical substance, Gene No. 3776 [1]: −; Behavior of gene caused by administration of chemical substance, Gene No. 3929 [1]: −; Behavior of gene caused by administration of chemical substance, Gene No. 1119 [1]: −; Behavior of gene caused by administration of chemical substance, Gene No. 6742 [1]: +; Behavior of gene caused by administration of chemical substance, Gene No. 5634 [1]: +; Behavior of gene caused by administration of chemical substance, Gene No. 5726 [1]: −; Carcinogenicity (rodent): C−; Liver carcinogenicity (liver; [3]): Cr−; Mutagenicity by Ames test [2]: M+
